Common to all, as to test: inhibition of tumour cell growth, NCI panel, 48 h
Assay [1] concerns Malme-3M.
Assay [2] relates to NCI-H226.
For assay [3], the system named is SF-539.
For assay [4], the system named is MOLT-4.
The test system of assay [5] is HCT-15.
The test system of assay [6] is LOX IMVI.
The subject of assay [7] is SK-MEL-5.
For assay [8], the system named is COLO 205.
Assay [9] relates to HOP-62.
For assay [10], the system named is OVCAR-4.
For assay [11], the system named is OVCAR-8.
Assay [12] deals with RXF 393.
Assay [13] deals with EKVX.
The test system of assay [14] is HL-60.
Assay [15] concerns SNB-19.
Assay [16] deals with NCI-H23.
Assay [17] has as its system A498.
Assay [18] relates to SF-268.
Assay [19] deals with NCI-H460.

Consider twelve compounds from ChEMBL document CHEMBL1201862, “PubChem BioAssay data set” (2004).

“And” between values parts separate entries of the source, which are not always exact repeats. Equal entries are not always repeated.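 48-hour exposure; five concentrations; linearly interpolated endpoints. At the GI50, growth is halved.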 The source made the active and inactive calls. Cut-off read from the data, not from the text of the source: active = GI50 up to about 1.1 µM and inactive = higher. Bounds are passed on as bounds.

For the compound `CNS(=O)(=O)NN(C)S(=O)(=O)c1ccc2ccccc2c1`, the GI50 in assay [1] is > 100 µM (inactive); in [2], > 100 µM (inactive); in [3], > 100 µM (inactive); in assay [4] it was > 100 µM (inactive); in assay [5], above 100 µM; in assay [6], > 100 µM (inactive). For the same compound, the GI50 in assay [7], in assay [8], in assay [9], in assay [10], in [11] and in [12] was > 100 µM (inactive) in each case. The GI50 in assay [13] was > 100 µM (inactive); in assay [14] it was > 100 µM (inactive); in assay [15], > 10 µM (inactive); in assay [16], > 100 µM (inactive); in assay [17], > 100 µM (inactive).

For `COc1ccc2cc3nc(O)cc(O)c3cc2c1OC`, the GI50 was > 100 µM (inactive) in [1]; > 100 µM (inactive) in assay [2]; > 100 µM (inactive) in assay [3]; > 100 µM (inactive) in assay [4]; above 100 µM in [5]; > 100 µM (inactive) in assay [18]. Besides, the GI50 in assay [6], in [9], in assay [10], in [11], in [12] and in assay [13] was > 100 µM (inactive) in each case. Besides, the GI50 in [14], in [15], in [19], in assay [16] and in assay [17] was > 100 µM (inactive) throughout.

As for `COC1OC(COC(C)=O)C(OC(C)=O)C(OC(C)=O)C1NC(=O)N(CCCl)N=O` (centres undefined), the GI50 in assay [1] was > 100 µM (inactive); in assay [2] it was > 100 µM (inactive); in assay [18], 26.8 µM (inactive) and 20.3 µM (inactive); in [6], 61.4 µM (inactive) and 47.3 µM (inactive); in assay [7], > 100 µM (inactive); in [8] it was > 100 µM (inactive). Further, the GI50 is > 100 µM (inactive) in assay [10]; > 100 µM (inactive) in assay [11]; > 100 µM (inactive) in assay [12]; > 100 µM (inactive) in assay [13]; 30.8 µM (inactive) and 16.1 µM (inactive) in assay [14]; > 100 µM (inactive) and 69.7 µM (inactive) in [15]. Besides, the GI50 in [19] was 63 µM (inactive) and 44.6 µM (inactive); in assay [16], > 100 µM (inactive); in [17], > 100 µM (inactive).

For the compound `CCCSS[C@H]1NC(=O)[C@H]1NC(=O)COc1ccccc1`, the GI50 in assay [1] was 13.8 µM (inactive); in assay [3], 15.3 µM (inactive); in assay [4], 1.28 µM (inactive); in assay [5], 11.7 µM; in [18], 20 µM (inactive); in assay [6], 16.4 µM (inactive). In addition, the GI50 is 22.8 µM (inactive) in assay [7]; 12.3 µM (inactive) in assay [8]; > 100 µM (inactive) in assay [9]; 17.3 µM (inactive) in [10]; 13.9 µM (inactive) in assay [11]; 16.1 µM (inactive) in assay [12]. The GI50 in [13] is 20.6 µM (inactive); in assay [14], 2.6 µM (inactive); in [15] it was > 100 µM (inactive); in [19], 17.6 µM (inactive); in assay [16], 17.7 µM (inactive); in assay [17] it was 24.8 µM (inactive).

On to `CN(C)CC/[N+]([O-])=C(/c1ccccc1)C12CC3CC(CC(C3)C1)C2`, for which the GI50 was 39.7 µM (inactive) in [1]; 12.5 µM (inactive) in [2]; 16.5 µM (inactive) in assay [3]; 16.7 µM (inactive) in [4]; 19.1 µM in assay [5]; 20.9 µM (inactive) in [18]. Also, the GI50 in [6] is 15.3 µM (inactive); in assay [7], 17.5 µM (inactive); in [8], 14 µM (inactive); in [9] it was 14.8 µM (inactive); in assay [11], 17.9 µM (inactive); in assay [12], 18.2 µM (inactive). The GI50 in [13] was 21 µM (inactive); in [14], 11.8 µM (inactive); in assay [15], 18.2 µM (inactive); in assay [19] it was 18.4 µM (inactive); in [16] it was 20.1 µM (inactive); in assay [17] it was 18.3 µM (inactive).

As for `O=C1/C(=C/c2ccccc2)CN(C(=O)OCC(Cl)(Cl)Cl)C/C1=C\c1ccccc1`, the GI50 was 3.2 µM (inactive) in assay [1]; 4.29 µM (inactive) in assay [3]; 2.51 µM (inactive) in [4]; 1.95 µM in assay [5]; 3.81 µM (inactive) in [18]; 0.792 µM (active) in assay [6]. For the same compound, the GI50 in assay [7] is 1.55 µM (inactive); in [8], 3.73 µM (inactive); in [11] it was 1.76 µM (inactive); in [12], 1.68 µM (inactive); in [13] it was > 10 µM (inactive); in assay [14], 0.897 µM (active). Moreover, the GI50 was 3.27 µM (inactive) in [15], 2.1 µM (inactive) in [19], 2.25 µM (inactive) in assay [16] and 2 µM (inactive) in assay [17].

`Fc1ccc2c(c1)SC1Oc3ccccc3-c3c1c-2nn3-c1ccccc1` (centres undefined): the GI50 in assay [1], in assay [3], in assay [4], in assay [18], in [6] and in assay [8] was > 100 µM (inactive) throughout. The GI50 is 30.4 µM (inactive) in assay [9]; > 100 µM (inactive) in [11]; 46.9 µM (inactive) in assay [12]; > 100 µM (inactive) in [13]; > 100 µM (inactive) in [14]; > 100 µM (inactive) in [19]. Besides, the GI50 in assay [16] and in assay [17] was > 100 µM (inactive) throughout.

Consider `[O-][n+]1c(-c2ccccc2)c2nc3ccccc3nc2c2ccccc21`, for which the GI50 in assay [1] was > 100 µM (inactive); in assay [2], > 100 µM (inactive); in assay [3] it was > 100 µM (inactive); in [4] it was > 100 µM (inactive); in assay [5], above 100 µM; in assay [18], > 100 µM (inactive). For the same compound, the GI50 in assay [6] was > 100 µM (inactive); in assay [7] it was > 100 µM (inactive); in [8], > 100 µM (inactive); in [9] it was > 100 µM (inactive); in assay [10], 5 µM (inactive); in assay [11], > 100 µM (inactive). Besides, the GI50 in assay [12], in assay [13], in [15], in assay [19], in assay [16] and in assay [17] was > 100 µM (inactive) each time.

On to `Clc1ccccc1C1=NN(c2ccccc2)C2c3cc(Br)ccc3OCC12` (centres undefined), for which the GI50 was > 100 µM (inactive) in assay [1]; > 100 µM (inactive) in [3]; 96.4 µM (inactive) in assay [4]; > 100 µM (inactive) in assay [18]; > 10 µM (inactive) in assay [6]; > 100 µM (inactive) in assay [8]. For the same compound, the GI50 was > 100 µM (inactive) in assay [9]; > 100 µM (inactive) in assay [11]; > 100 µM (inactive) in assay [12]; 89.9 µM (inactive) in assay [13]; > 100 µM (inactive) in assay [14]; > 100 µM (inactive) in assay [15]. For the same compound, the GI50 in assay [19], in [16] and in assay [17] was > 100 µM (inactive) in each case.

With `Cc1ccc(S(=O)(=O)c2ccccc2[N+](=O)[O-])cc1`, the GI50 in assay [1] was 85.1 µM (inactive); in [2], > 100 µM (inactive); in assay [3], > 100 µM (inactive); in assay [4], 66.7 µM (inactive); in assay [5], above 100 µM; in assay [7] it was 52.1 µM (inactive). Moreover, the GI50 in [9] was 92.3 µM (inactive); in [10], 86.9 µM (inactive); in assay [11], > 100 µM (inactive); in [12] it was 37.3 µM (inactive); in assay [13], > 100 µM (inactive); in assay [14], 37.5 µM (inactive). The results for the GI50 in [19], in assay [16] and in [17] were > 100 µM (inactive), 55.2 µM (inactive) and > 100 µM (inactive), respectively.

As to `COc1ccc(C2=NNC(=O)OC2c2ccccc2)cc1` (centres undefined), the GI50 is 52.8 µM (inactive) in [1]; 34.3 µM (inactive) in [2]; > 100 µM (inactive) in assay [3]; 43.8 µM (inactive) in [4]; 37.7 µM in [5]; 72.6 µM (inactive) in [18]. Moreover, the GI50 in assay [6] is 55 µM (inactive); in [8], 78.2 µM (inactive); in assay [9], > 100 µM (inactive); in [10], > 100 µM (inactive); in assay [11], > 100 µM (inactive); in assay [12], 38 µM (inactive). The GI50 in assay [13] is 76 µM (inactive); in assay [14], 67.5 µM (inactive); in assay [15], 67.1 µM (inactive); in [19], 53.2 µM (inactive); in assay [16] it was 53.5 µM (inactive); in [17], 49.4 µM (inactive).

In the case of `O=C1OC(O)C(Oc2ccc(Cl)cc2)=C1Cl` (centres undefined), the GI50 in assay [1] is > 100 µM (inactive); in assay [2], > 100 µM (inactive); in [3], > 100 µM (inactive); in assay [4] it was > 100 µM (inactive); in assay [5], above 100 µM; in assay [18], > 100 µM (inactive). The GI50 in assay [6], in [8], in [9], in [10], in [11] and in assay [12] was > 100 µM (inactive) each time. Moreover, the GI50 in [13], in assay [14], in assay [15], in [19], in [16] and in assay [17] was > 100 µM (inactive) in each case.
